# Columns and labels:
# Mus musculus [1] = assay: Anti-inflammatory activity in CD1 mouse model of TPA-induced ear edema assessed as inhibition of ear edema at 1 umol/ear applied to right ear 10 mins after TPA-stimulation and measured 4 hrs post compound dose; format: functional
# Mus musculus [2] = assay: Anti-inflammatory activity in CD1 mouse model of TPA-induced ear edema assessed as inhibition of ear edema at 0.1 to 1 umol/ear applied to right ear 10 mins after TPA-stimulation and measured 4 hrs post compound dose relative to indomethacin; format: functional
# Mus musculus [3] = assay: Anti-inflammatory activity in CD1 mouse model of TPA-induced ear edema assessed as inhibition of ear edema at 0.1 to 1 umol/ear applied to right ear 10 mins after TPA-stimulation and measured 4 hrs post compound dose; format: functional, organism-based
Compound,inhibition (INH) (Mus musculus [1]) [%],Ratio IC50 (Mus musculus [2]),IC50 (Mus musculus [3]) [µmol]
C/C(=C\CO)CC[C@@H]1[C@@]2(C)CCCC(C)(C)[C@@H]2CC[C@@]1(C)O,64.32,2,0.67
COc1ccc2c(c1)c(CC(=O)O)c(C)n2C(=O)c1ccc(Cl)cc1 [INDOMETHACIN],,,0.297
C=C1CC[C@H]2C(C)(C)CCC[C@]2(C)[C@H]1CC/C(=C/CO)CO,41.35,,
